Target: human APJ receptor (Homo sapiens (Human), UniProt P35414)
Experiment: [35S]GTPγS binding assay on membranes from CHO cells stably expressing human APJ receptor
Assay type: biochemical
Conditions: read-out: Activity hAPJ SPA EC50 IP
Summary of the method: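 Membranes from CHO cells stably expressing human APJ incubated with ligand, 0.2 nM [35S]GTPγS and WGA SPA beads in HEPES pH 7.5 with 5 mM MgCl2, 200 mM NaCl, 3 μM GDP, 90 min at RT. Nonspecific binding defined with 100 μM GTPγS; EC50 by non-linear regression.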

Chain of human APJ receptor (P35414 whole entry): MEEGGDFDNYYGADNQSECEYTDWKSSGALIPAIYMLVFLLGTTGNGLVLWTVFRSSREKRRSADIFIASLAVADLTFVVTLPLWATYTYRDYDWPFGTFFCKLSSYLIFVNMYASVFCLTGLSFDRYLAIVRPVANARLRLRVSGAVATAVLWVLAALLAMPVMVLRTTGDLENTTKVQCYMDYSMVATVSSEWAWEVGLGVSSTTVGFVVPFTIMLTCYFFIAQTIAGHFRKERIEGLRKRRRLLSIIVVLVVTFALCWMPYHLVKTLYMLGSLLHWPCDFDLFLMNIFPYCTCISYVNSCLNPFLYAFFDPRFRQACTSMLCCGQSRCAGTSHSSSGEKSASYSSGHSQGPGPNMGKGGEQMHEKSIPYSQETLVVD

Substance	EC50 [nM]
(1R,2S)-1-(5-chloropyrimidin-2-yl)-1-methoxy-N-(5-((2S,5S)-5-methyltetrahydrofuran-2-yl)-4-(tetrahydro-2H-pyran-4-yl)-4H-1,2,4-triazol-3-yl)propane-2-sulfonamide or (1R,2S)-1-(5-chloropyrimidin-2-yl)-1-methoxy-N-(5-((2R,5R)-5-methyltetrahydrofuran-2-yl)-4-(tetrahydro-2H-pyran-4-yl)-4H-1,2,4-triazol-3-yl)propane-2-sulfonamide [Example 226.0]	1400
(1R,2S)-1-(5-chloropyrimidin-2-yl)-1-methoxy-N-(5-((2S,5S)-5-methyltetrahydrofuran-2-yl)-4-tetrahydro-2H-pyran-4-yl)-4H-1,2,4-triazol-3-yl)propane-2-sulfonamide or (1R,2S)-1-(5-chloropyrimidin-2-yl)-1-methoxy-N-(5-((2R,5R)-5-methyltetrahydrofuran-2-yl)-4-(tetrahydro-2H-pyran-4-yl)-4H-1,2,4-triazol-3-yl)propane-2-sulfonamide [Example 225.0]	70
(1R,2S)-1-(5-chloropyrimidin-2-yl)-N-(4-(2,6-dimethoxyphenyl)-5-((3aR,6aR)-hexahydro-3aH-cyclopenta[b]furan-3a-yl)-4H-1,2,4-triazol-3-yl)-1-methoxypropane-2-sulfonamide or (1R,2S)-1-(5-chloropyrimidin-2-yl)-N-(4-(2,6-dimethoxyphenyl)-5-((3aS,6aS)-hexahydro-3aH-cyclopenta[b]furan-3a-yl)-4H-1,2,4-triazol-3-yl)-1-methoxypropane-2-sulfonamide [Example 346.0]	780
(1R,2S)-1-(5-chloropyrimidin-2-yl)-N-(4-(2,6-dimethoxyphenyl)-5-((3aR,6aR)-hexahydro-3aH-cyclopenta[b]furan-3a-yl)-4H-1,2,4-triazol-3-yl)-1-methoxypropane-2-sulfonamide or (1R,2S)-1-(5-chloropyrimidin-2-yl)-N-(4-(2,6-dimethoxyphenyl)-5-((3aS,6aS)-hexahydro-3aH-cyclopenta[b]furan-3a-yl)-4H-1,2,4-triazol-3-yl)-1-methoxypropane-2-sulfonamide [Example 347.0]	360
(1R,2S)-1-(5-chloropyrimidin-2-yl)-N-(4-(2,6-dimethoxyphenyl)-5-((R)-1,1-dioxidotetrahydrothiophen-3-yl)-4H-1,2,4-triazol-3-yl)-1-methoxypropane-2-sulfonamide or (1R,2S)-1-(5-chloropyrimidin-2-yl)-N-(4-(2,6-dimethoxyphenyl)-5-((S)-1,1-dioxidotetrahydrothiophen-3-yl)-4H-1,2,4-triazol-3-yl)-1-methoxypropane-2-sulfonamide [Example 187.0]	350
(1R,2S)-1-(5-chloropyrimidin-2-yl)-N-(4-(4,6-dimethoxypyrimidin-5-yl)-5-((R)-5,5-dimethyltetrahydrofuran-3-yl)-4H-1,2,4-triazol-3-yl)-1-methoxypropane-2-sulfonamide or (1R,2S)-1-(5-chloropyrimidin-2-yl)-N-(4-(4,6-dimethoxypyrimidin-5-yl)-5-((S)-5,5-dimethyltetrahydrofuran-3-yl)-4H-1,2,4-triazol-3-yl)-1-methoxypropane-2-sulfonamide [Example 316.0]	26
(1R,2S)-1-(5-chloropyrimidin-2-yl)-N-(5-((R)-2,3-dihydrobenzo[b][1,4]dioxin-2-yl)-4-(2,6-dimethoxyphenyl)-4H-1,2,4-triazol-3-yl)-1-methoxypropane-2-sulfonamide or (1R,2S)-1-(5-chloropyrimidin-2-yl)-N-(5-((S)-2,3-dihydrobenzo[b][1,4]dioxin-2-yl)-4-(2,6-dimethoxyphenyl)-4H-1,2,4-triazol-3-yl)-1-methoxypropane-2-sulfonamide [Example 258.0]	33
(1R,2S)-N-(4-(1,3-dimethoxy-2-propanyl)-5-((2R,5R)-5-methyltetrahydro-2-furanyl)-4H-1,2,4-triazol-3-yl)-1-methoxy-1-(5-methoxy-2-pyrazinyl)-2-propanesulfonamide or (1R,2S)-N-(4-(1,3-dimethoxy-2-propanyl)-5-((2S,5S)-5-methyltetrahydro-2-furanyl)-4H-1,2,4-triazol-3-yl)-1-methoxy-1-(5-methoxy-2-pyrazinyl)-2-propanesulfonamide [Example 378.0]	170

The remaining lines, values ahead:

EC50 [nM]	Substance
220	(1R,2S)-1-(5-chloropyrimidin-2-yl)-N-(4-(2,6-dimethoxyphenyl)-5-((R)-1,1-dioxidotetrahydrothiophen-3-yl)-4H-1,2,4-triazol-3-yl)-1-methoxypropane-2-sulfonamide or (1R,2S)-1-(5-chloropyrimidin-2-yl)-N-(4-(2,6-dimethoxyphenyl)-5-((S)-1,1-dioxidotetrahydrothiophen-3-yl)-4H-1,2,4-triazol-3-yl)-1-methoxypropane-2-sulfonamide [Example 188.0]
1	(1R,2S)-1-(5-chloropyrimidin-2-yl)-N-(4-(2,6-dimethoxyphenyl)-5-((R)-1,4-dioxan-2-yl)-4H-1,2,4-triazol-3-yl)-1-methoxypropane-2-sulfonamide or (1R,2S)-1-(5-chloropyrimidin-2-yl)-N-(4-(2,6-dimethoxyphenyl)-5-((S)-1,4-dioxan-2-yl)-4H-1,2,4-triazol-3-yl)-1-methoxypropane-2-sulfonamide [Example 197.0]
85	(1R,2S)-1-(5-chloropyrimidin-2-yl)-N-(4-(4,6-dimethoxypyrimidin-5-yl)-5-((R)-5,5-dimethyltetrahydrofuran-3-yl)-4H-1,2,4-triazol-3-yl)-1-methoxypropane-2-sulfonamide or (1R,2S)-1-(5-chloropyrimidin-2-yl)-N-(4-(4,6-dimethoxypyrimidin-5-yl)-5-((S)-5,5-dimethyltetrahydrofuran-3-yl)-4H-1,2,4-triazol-3-yl)-1-methoxypropane-2-sulfonamide [Example 315.0]
88	(1R,2S)-1-(5-chloropyrimidin-2-yl)-N-(5-((R)-2,3-dihydrobenzo[b][1,4]dioxin-2-yl)-4-(2,6-dimethoxyphenyl)-4H-1,2,4-triazol-3-yl)-1-methoxypropane-2-sulfonamide or (1R,2S)-1-(5-chloropyrimidin-2-yl)-N-(5-((S)-2,3-dihydrobenzo[b][1,4]dioxin-2-yl)-4-(2,6-dimethoxyphenyl)-4H-1,2,4-triazol-3-yl)-1-methoxypropane-2-sulfonamide [Example 259.0]
560	(1R,2S)-1-(5-chloropyrimidin-2-yl)-N-(5-((S)-5,5-dimethyltetrahydrofuran-2-yl)-4-(tetrahydro-2H-pyran-4-yl)-4H-1,2,4-triazol-3-yl)-1-methoxypropane-2-sulfonamide or (1R,2S)-1-(5-chloropyrimidin-2-yl)-N-(5-((R)-5,5-dimethyltetrahydrofuran-2-yl)-4-(tetrahydro-2H-pyran-2-yl)-4H-1,2,4-triazol-3-yl)-1-methoxypropane-2-sulfonamide [Example 221.0]
